Measured values reported in PubChem BioAssay (NCI).
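Following 48 hours of exposure in 96-well plates, responses at five concentrations were used to interpolate endpoints linearly. TGI marks complete inhibition of growth.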

What was measured:
Assay in all cases: growth of human tumour cells (NCI), 48 h
U251 CNS = tested on: U251 CNS
HCT-116 colon = tested on: HCT-116 colon
IGROV1 ovarian = tested on: IGROV1 ovarian
SW-620 colon = tested on: SW-620 colon
OVCAR-8 ovarian = tested on: OVCAR-8 ovarian
NCI-H460 lung = tested on: NCI-H460 lung
SR leukemia = tested on: SR leukemia
SN12C renal = tested on: SN12C renal
LOX IMVI melanoma = tested on: LOX IMVI melanoma
UACC-62 melanoma = tested on: UACC-62 melanoma
NCI-H23 lung = tested on: NCI-H23 lung
786-0 renal = tested on: 786-0 renal
A549 NSCLC = tested on: A549 NSCLC
DU-145 prostate = tested on: DU-145 prostate
MDA-MB-435 = tested on: MDA-MB-435
SNB-75 CNS = tested on: SNB-75 CNS
PC-3 prostate = tested on: PC-3 prostate
ACHN renal = tested on: ACHN renal
CCRF-CEM leukemia = tested on: CCRF-CEM leukemia
RXF 393 renal = tested on: RXF 393 renal
SK-MEL-2 melanoma = tested on: SK-MEL-2 melanoma
MOLT-4 leukemia = tested on: MOLT-4 leukemia
SNB-19 CNS = tested on: SNB-19 CNS
MDA-MB-231 breast = tested on: MDA-MB-231 breast
HOP-62 NSCLC = tested on: HOP-62 NSCLC
SK-OV-3 ovarian = tested on: SK-OV-3 ovarian
OVCAR-4 ovarian = tested on: OVCAR-4 ovarian
K-562 leukemia = tested on: K-562 leukemia
UACC-257 melanoma = tested on: UACC-257 melanoma
COLO 205 colon = tested on: COLO 205 colon
M14 melanoma = tested on: M14 melanoma
HCC-2998 colon = tested on: HCC-2998 colon
T-47D breast = tested on: T-47D breast
SF-268 CNS = tested on: SF-268 CNS
SK-MEL-28 melanoma = tested on: SK-MEL-28 melanoma
MCF7 breast = tested on: MCF7 breast
KM12 colon = tested on: KM12 colon
SK-MEL-5 melanoma = tested on: SK-MEL-5 melanoma
CAKI-1 renal = tested on: CAKI-1 renal
A498 renal = tested on: A498 renal
MALME-3M melanoma = tested on: MALME-3M melanoma
HT29 colon = tested on: HT29 colon
OVCAR-3 ovarian = tested on: OVCAR-3 ovarian
NCI-H226 lung = tested on: NCI-H226 lung
NCI/ADR-RES ovarian = tested on: NCI/ADR-RES ovarian
HS 578T breast = tested on: HS 578T breast
OVCAR-5 ovarian = tested on: OVCAR-5 ovarian
BT-549 breast = tested on: BT-549 breast
HCT-15 colon = tested on: HCT-15 colon
EKVX NSCLC = tested on: EKVX NSCLC
RPMI-8226 leukemia = tested on: RPMI-8226 leukemia
NCI-H522 lung = tested on: NCI-H522 lung
HOP-92 NSCLC = tested on: HOP-92 NSCLC
HL-60(TB) leukemia = tested on: HL-60(TB) leukemia

Measured: TGI

CN1C(=O)C(C(N)=O)C2CC1(C)Oc1ccccc12 (centres undefined)
> 100 µM: U251 CNS | HCT-116 colon | IGROV1 ovarian | SW-620 colon | OVCAR-8 ovarian | NCI-H460 lung | SR leukemia | SN12C renal | LOX IMVI melanoma | UACC-62 melanoma | NCI-H23 lung | 786-0 renal | A549 NSCLC | DU-145 prostate | MDA-MB-435 | SNB-75 CNS | PC-3 prostate | ACHN renal | CCRF-CEM leukemia | RXF 393 renal | SK-MEL-2 melanoma | MOLT-4 leukemia | SNB-19 CNS | MDA-MB-231 breast | HOP-62 NSCLC | SK-OV-3 ovarian | OVCAR-4 ovarian | K-562 leukemia | UACC-257 melanoma | COLO 205 colon | M14 melanoma | HCC-2998 colon | T-47D breast | SF-268 CNS | SK-MEL-28 melanoma | MCF7 breast | KM12 colon | SK-MEL-5 melanoma | CAKI-1 renal | A498 renal | MALME-3M melanoma | HT29 colon | OVCAR-3 ovarian | NCI-H226 lung | NCI/ADR-RES ovarian | HS 578T breast | OVCAR-5 ovarian | BT-549 breast | HCT-15 colon | EKVX NSCLC | RPMI-8226 leukemia | NCI-H522 lung | HOP-92 NSCLC | HL-60(TB) leukemia
